Results taken from PMC9505538, “P-Glycoprotein (MDR1/ABCB1) Restricts Brain Accumulation of the Novel EGFR Inhibitor EAI045 and Oral Elacridar Coadministration Enhances Its Brain Accumulation and Oral Exposure” (Pharmaceuticals, 2022).

Conditions: mouse, in vivo
Description: We subsequently analyzed the single and combined effects of Abcb1 and Abcg2 deficiencies on EAI045 plasma pharmacokinetics and tissue accumulation using male WT, Abcg2^-/-, Abcb1a/1b^-/-, and Abcb1a/1b;Abcg2^-/- mice. As we wanted to assess tissue concentrations while plasma concentrations were still relatively high; we terminated this experiment at 30 min.
Mice (Mus musculus) were bred in the Netherlands Cancer Institute and housed and handled according to institutional guidelines complying with Dutch and EU legislation. Animals used were WT, Abcb1a/1b^-/- [39], Abcg2^-/- [40], Abcb1a/1b;Abcg2^-/- [41], Cyp3a^-/- [42], and Oatp1a/1b^-/- [43] mice of a >99% FVB/N strain background. Homozygous CYP3A4 humanized transgenic mice (Cyp3aXAV) were generated by cross-breeding of transgenic mice with stable human CYP3A4 expression in the liver or intestine, respectively, in a Cyp3a^-/- background. Proper functionality of the knockout and transgenic strains was monitored by regular testing with a variety of drug substrates. All the mice used were between 10 and 15 weeks of age. Animals were kept in a temperature-controlled environment with a 12 h light/12 h dark cycle and received a standard diet (Transbreed, SDS Diets, Technilab-BMI, The Netherlands) and acidified water ad libitum. Depending on the type of experiment, 5 or 6 mice were tested in each experimental group. All experimental animal protocols, including power calculations, were ethically assessed and designed under the nationally approved DEC/CCD project AVD301002016595 (approval date, 10 August 2016) and evaluated and approved by the institutional animal care and use committee (IACUC) of the Netherlands Cancer Institute.
EAI045 was dissolved in dimethyl sulfoxide (DMSO) at a concentration of […], and then diluted with a mixture of polysorbate 80/ethanol (1:1, v/v), and further diluted with 5% (w/v) glucose in water to yield a concentration of 2 mg/mL. Final concentrations for DMSO, polysorbate 80, ethanol, and glucose in the dosing solution were 5%, 2.5%, 2.5%, and 4.5% (v/v/v/w), respectively. Elacridar hydrochloride was dissolved in DMSO at a concentration of 53 mg/mL, then diluted with a mixture of polysorbate 80, ethanol, and water [20:13:67, (v/v/v)] to yield a concentration of 5 mg/mL elacridar. The final oral dose of elacridar was 50 mg/kg body weight. All dosing solutions were prepared freshly on the day of experiment.
To minimize variation in absorption, mice were fasted for about 3 h before EAI045 was administered by gavage into the stomach (n = 5–6), using a blunt-ended needle. EAI045 was administered orally at dose of 20 mg/kg. Elacridar was administered orally at a dose of 50 mg/kg, 3 h prior to oral EAI045 administration. For the 24- or 4-h experiments, tail vein blood samplings were performed at 5 min, 30 min, 1, 2, 4, and 8 h, or 5 min, 15 min, 30 min, 1, and 2 h time points after oral administration of EAI045, respectively, using microvettes containing heparin. For the 30 min experiments, blood samplings were performed at 5, 10, and 20 min from the tail vein. At the last time point (24 h, 4 h, or 30 min), mice were anesthetized with isoflurane and blood was collected by cardiac puncture. Then, mice were sacrificed by cervical dislocation and brain, liver, spleen, kidneys, lung, small intestine with content (SIWC), and testis were rapidly removed and weighed. Tissues were homogenized on ice in appropriate volumes of 2% (w/v) BSA. Blood samples were centrifuged at 9000× g for 6 min at 4 °C immediately after collection. All samples were stored at −30 °C until analysis.

## O=C(Nc1nccs1)C(c1cc(F)ccc1O)N1Cc2ccccc2C1=O (stereo not shown) [EAI045]
  Kp.SIWC% (SIWC%-to-plasma ratio), fold decrease: 3.6 fold
  SIWC%, fold decrease: 2.1 fold
  brain-to-plasma ratio, fold increase: 5.2 fold
  plasma AUC0–30min, fold increase: 2.1 fold
